Laboratory results as given in patent US20040018150A1, “Prodrugs of phosphonate nucleotide analogues and methods for selecting and making same” (priority 2003, published 2004).
Like-named read-outs stand apart in the source and are kept apart here.

Assays:
[1] = Stability in human plasma; assay type: in vitro ADME
Protocol: (§1) The in vitro metabolism and stability of separated diastereomers were determined in PLCE, MT-2 extract and human plasma. A biological sample listed below, 80 μL, was transferred into a screw-capped centrifuge tube and incubated at 37° C. for 5 min. A solution containing 0.2 mg/mL of the test compound in a suitable buffer, 20 μL, was added to the biological sample and mixed. The reaction mixture, 20 μL, was immediately sampled and mixed with 60 μL of methanol containing 0.015 mg/mL of 2-hydroxymethylnaphthalene as an internal standard for HPLC analysis. The sample was taken as the time-zero sample. Then, at specific time points, the reaction mixture, 20 μL, was sampled and mixed with 60 μL of methanol containing the internal standard. The mixture thus obtained was centrifuged at 15,000 G for 5 min and the supernatant was analyzed with HPLC under the conditions described below.
(3) Human plasma (pooled normal human plasma from George King Biomedical Systems, Inc.)
In the study for human plasma, the test compound was dissolved in TBS. TBS (tris-buffered saline, Sigma) contains 0.05 M Tris, 0.0027 M potassium chloride, and 0.138 M sodium chloride. pH 7.5 at 37° C.
(§2) The HPLC analysis was carried out under the following conditions.

[2] = Cytotoxicity in MT-2 cells; settings: human
[3] = Incubation of radiolabeled PMPA prodrugs or PMPA in human whole blood; metabolites in plasma, PBMCs and RBCs; assay type: in vitro ADME; settings: human blood; for Total C-14 Recovered: 1 h incubation, 60 μg-eq; for Metabolites (% of Total Peak Area): GS 7340: 1 h
Protocol: After 1 hour, plasma, red blood cells (RBCs) and peripheral blood mononuclear cells (PBMCs) were isolated and analyzed by HPLC with radiometric detection.

[4] = system: PLCE (porcine liver carboxyesterase); experiment: in vitro; assay type: in vitro ADME; settings: 37° C., PBS pH 7.4
Protocol: as §1
(§3) (1) PLCE (porcine liver carboxyesterase from Sigma, 160 u/mg protein, 21 mg protein/mL) diluted 20 fold with PBS (phosphated-buffered saline).
(§4) In the study for PLCE, the test compound was dissolved in PBS. PBS (phosphate-buffered saline, Sigma) contains 0.01 M phosphate, 0.0027 M potassium chloride, and 0.137 M sodium chloride. pH 7.4 at 37° C.
as §2

[5] = system: porcine liver carboxyesterase (PLCE); experiment: in vitro; assay type: in vitro ADME; settings: pig; 37° C., PBS pH 7.4; read-out: PLCE hydrolysis rate t1/2
Protocol: as §1, §3, §4, §2

[6] = system: HIV-1; experiment: microbe, parasite or virus in culture
[7] = Stability / hydrolysis in MT-2 cell extract; assay type: in vitro ADME
Protocol: as §1
(2) MT-2 cell extract was prepared from MT-2 cells according to the published procedure [A. Pompon, I. Lefebvre, J.-L. Imbach, S. Kahn, and D. Farquhar, “Antiviral Chemistry & Chemotherapy”, 5:91-98 (1994)] except for using HEPES buffer described below as the medium.
In the study for MT-2 cell extracts, the test compound was dissolved in HEPES buffer. HEPES buffer contains 0.010 M HEPES, 0.05 M potassium chloride, 0.005 M magnesium chloride, and 0.005 M dl-dithiothreitol. pH 7.4 at 37° C.
as §2

[8] = Excretion and tissue distribution of radiolabelled prodrug in dogs; settings: dogs; for % Dose / Conc.: oral 10 mg-eq. PMPA/kg
Protocol: Plasma and peripheral blood mononuclear cells (PBMCs) were obtained over the 24-hr period. Urine and feces were cage collected over 24 hr. At 24 h after the dose, the animals were sacrificed and tissues removed for analysis. Total radioactivity in tissues was determined by oxidation and liquid scintillation counting.

CC(C)OC(=O)[C@H](C)N[P@](=O)(CO[C@H](C)Cn1cnc2c(N)ncnc21)Oc1ccccc1 (single isomer, unassigned) [GS-7340]
Human Plasma Stability (HP) product ([1]; 37° C., TBS pH 7.5): Met. Y | half-life at 0.04 mg/mL ([1]; pH 7.5, human plasma, read-out: Stability T 1/2 Human Plasma): 90 min | CC50 ([2]; CC50, cell culture): ≥ 40 µM | CC50 ([2]; Cytotoxicity CC50, MT-2 cells): > 40 µM | Total C-14 Recovered ([3]; PBMC): 1.25 μg-eq | Metabolites (% of Total Peak Area): GS 7340 ([3]; Plasma/FP): 84% | Total C-14 Recovered ([3]; Plasma/FP): 43.0 μg-eq | Metabolites (% of Total Peak Area): GS 7340 ([3]; RBC/FP): 57% | Total C-14 Recovered ([3]; RBC/FP): 12.6 μg-eq | radioactivity in plasma due to intact GS-7340 ([3]; plasma after 1 hour): 84% | PLCE hydrolysis product [4]: Met. X & PMPA | half-life at 0.04 mg/mL [5]: 3.3 min | IC50 ([6]; Human immunodeficiency virus 1, MT2): 5 nM | IC50 ([6]; Human immunodeficiency virus 1, MT2, read-out: HIV IC50): 5 nM | IC50 ([6]; Human immunodeficiency virus 1, MT2, read-out: HIV-1 Activity IC50): 5 nM | MT-2 extract hydrolysis product ([7]; 37° C., HEPES buffer pH 7.4): Met. X & PMPA | half-life at 0.04 mg/mL ([7]; human, pH 7.4, MT-2 cell extract, read-out: Stability T 1/2 MT-2 Cell Extract): 28.3 min | % Dose ([8]; Abdominal fat, 24 h): 0.00% | Conc. ([8]; Abdominal fat, 24 h): 0.90 ug-eq/g | % Dose ([8]; Adrenal Gland, 24 h): 0.00% | Conc. ([8]; Adrenal Gland, 24 h): 3.47 ug-eq/g | % Dose ([8]; Axillary Lymph Nodes, 24 h): 0.01% | Conc. ([8]; Axillary Lymph Nodes, 24 h): 5.54 ug-eq/g | % Dose ([8]; Bile, 24 h): 0.22% | Conc. ([8]; Bile, 24 h): 40.48 ug-eq/g | % Dose ([8]; Bone Marrow, 24 h): 0.00% | Conc. ([8]; Bone Marrow, 24 h): 2.05 ug-eq/g | % Dose ([8]; Brain, 24 h): 0.00% | Conc. ([8]; Brain, 24 h): <LOD | % Dose ([8]; Cerebrospinal Fluid, 24 h): 0.00% | Conc. ([8]; Cerebrospinal Fluid, 24 h): 0.00 ug-eq/g | % Dose ([8]; Duodenum, 24 h): 0.44% | Conc. ([8]; Duodenum, 24 h): 8.77 ug-eq/g | % Dose ([8]; Eye (L + R), 24 h): 0.00% | Conc. ([8]; Eye (L + R), 24 h): 0.23 ug-eq/g | % Dose ([8]; Feces, collected over 24 hr): 0.19% | % Dose ([8]; Femoral Bone, 24 h): 0.00% | Conc. ([8]; Femoral Bone, 24 h): 0.28 ug-eq/g | % Dose ([8]; Gall bladder, 24 h): 0.04% | Conc. ([8]; Gall bladder, 24 h): 25.02 ug-eq/g | % Dose ([8]; Heart, 24 h): 0.15% | Conc. ([8]; Heart, 24 h): 1.97 ug-eq/g | % Dose ([8]; Ileum, 24 h): 0.16% | Conc. ([8]; Ileum, 24 h): 4.61 ug-eq/g | % Dose ([8]; Iliac Lymph Nodes, 24 h): 0.01% | Conc. ([8]; Iliac Lymph Nodes, 24 h): 5.42 ug-eq/g | % Dose ([8]; Inguinal Lymph Nodes, 24 h): 0.00% | Conc. ([8]; Inguinal Lymph Nodes, 24 h): 4.12 ug-eq/g | % Dose ([8]; Jejunum, 24 h): 0.79% | Conc. ([8]; Jejunum, 24 h): 4.16 ug-eq/g | % Dose ([8]; Kidney, 24 h): 3.78% | Conc. ([8]; Kidney, 24 h): 80.21 ug-eq/g | % Dose ([8]; Large Intestine, 24 h): 2.65% | Conc. ([8]; Large Intestine, 24 h): 47.20 ug-eq/g | % Dose ([8]; Liver, 24 h): 16.45% | Conc. ([8]; Liver, 24 h): 52.94 ug-eq/g | % Dose ([8]; Lungs, 24 h): 0.34% | Conc. ([8]; Lungs, 24 h): 4.33 ug-eq/g | % Dose ([8]; Mesenteric Lymph Nodes, 24 h): 0.04% | Conc. ([8]; Mesenteric Lymph Nodes, 24 h): 6.88 ug-eq/g | % Dose ([8]; PBMC): 0.00% | Conc. ([8]; PBMC, calculated using typical recovery of 15 × 10^6 cells total, mean PBMC volume 0.2 picoliters/cell): 63.20 ug-eq/g | % Dose ([8]; Pancreas, 24 h): 0.01% | Conc. ([8]; Pancreas, 24 h): 3.51 ug-eq/g | % Dose ([8]; Pituitary Gland, 24 h): 0.00% | Conc. ([8]; Pituitary Gland, 24 h): 1.80 ug-eq/g | Conc. ([8]; Plasma at 0.25 h): 3.48 ug-eq/g | % Dose ([8]; Plasma at 24 h): 0.00% | Conc. ([8]; Plasma at 24 h): 0.20 ug-eq/g | % Dose ([8]; Prostate, 24 h): 0.00% | Conc. ([8]; Prostate, 24 h): 2.14 ug-eq/g | % Dose ([8]; Salivary Gland (L + R), 24 h): 0.03% | Conc. ([8]; Salivary Gland (L + R), 24 h): 5.54 ug-eq/g | % Dose ([8]; Skeletal Muscle, 24 h): 0.01% | Conc. ([8]; Skeletal Muscle, 24 h): 1.12 ug-eq/g | % Dose ([8]; Skin, 24 h): 0.00% | Conc. ([8]; Skin, 24 h): 0.95 ug-eq/g | % Dose ([8]; Spinal Cord, 24 h): 0.00% | Conc. ([8]; Spinal Cord, 24 h): 0.04 ug-eq/g | % Dose ([8]; Spleen, 24 h): 0.17% | Conc. ([8]; Spleen, 24 h): 8.13 ug-eq/g | % Dose ([8]; Stomach, 24 h): 0.26% | Conc. ([8]; Stomach, 24 h): 2.68 ug-eq/g | % Dose ([8]; Testes (L + R), 24 h): 0.02% | Conc. ([8]; Testes (L + R), 24 h): 2.01 ug-eq/g | % Dose ([8]; Thyroid Gland, 24 h): 0.00% | Conc. ([8]; Thyroid Gland, 24 h): 4.78 ug-eq/g | % Dose ([8]; Total GI Tract Contents, 24 h): 21.64% | % Dose ([8]; Total Recovery, 24 h): 68.96% | % Dose ([8]; Urine, collected over 24 hr): 14.73% | % Dose ([8]; Whole Blood, 24 h): 0.16% | Conc. ([8]; Whole Blood, 24 h): 0.20 ug-eq/g | increase of levels of PMPA in the lymphatic tissues, bone marrow, and skeletal muscle ([8]; 24 hours after single oral dose, versus TDF): 10 fold
